Data taken from patent US4472404A, “8-Quinolinyl carbamates and their use as urinary tract antimicrobials” (priority 1982, dated 1984).
Values after ≈ are worked out from the molar mass of the structure shown. Where two headings read alike, the source gives them in different places.

Key:
Format in all cases: cell-based
[1] = test system: Escherichia coli ATCC 11229; assay: Minimum inhibitory concentration, urinary tract organisms (Example 13)
Protocol: (§1) The test compound was added to molten agar as a solution (when conveniently soluble in a solvent such as dimethylformamide) or a suspension forming a mixture having a concentration of 0.05 percent (500 ppm). The mixture was stirred and poured into plates to harden. When hardened, the plates were inoculated with various bacteria and fungi. The bacteria-inoculated plates were incubated at 37° C. for 24 hours, while the fungi-inoculated plates were incubated for about 72-120 hours. Following incubation, the plates were examined for growth or inhibition of the respective organisms.
(§2) After the initial readings, compounds showing sufficient activity were re-tested at various concentrations to determine the minimum inhibitory concentration (in ppm) of the compounds of the invention against the various bacteria and fungi tested.
(§3) Following a procedure substantially the same as that described in Example 12, the minimum inhibitory concentration for the compounds described herein was determined for various organisms representative of those commonly associated with urinary tract infections.
(§4) The organisms used in this procedure and the abbreviations designated in Table 3 are as follows: […]

[2] = test system: Staphylococcus aureus ATCC 25923; assay: as above
Protocol: as §1, §2, §3, §4

[3] = test system: Escherichia coli ATCC 9723; assay: as above
Protocol: as §1, §2, §3, §4

[4] = test system: Klebsiella pneumoniae M-2; assay: as above
Protocol: as §1, §2, §3, §4

[5] = test system: Escherichia coli ATCC 25922; assay: as above
Protocol: as §1, §2, §3, §4

[6] = test system: Pseudomonas aeruginosa PRD-10; assay: as above
Protocol: as §1, §2, §3, §4

Serratia marcescens M-1 = assay: as above
Protocol: as §1, §2, §3, §4

[7] = test system: Pseudomonas aeruginosa ATCC 27853; assay: as above
Protocol: as §1, §2, §3, §4

Proteus mirabilis 470/1 = assay: as above
Protocol: as §1, §2, §3, §4

[8] = test system: Klebsiella pneumoniae ATCC 23357; assay: as above
Protocol: as §1, §2, §3, §4

[9] = test system: Pseudomonas aeruginosa ATCC 7700; assay: as above
Protocol: as §1, §2, §3, §4

[10] = test system: Enterobacter aerogenes ATCC 13048; assay: as above; details: Klebsiella aerogenes
Protocol: as §1, §2, §3, §4

[11] = test system: Klebsiella pneumoniae M-6; assay: as above
Protocol: as §1, §2, §3, §4

[12] = test system: Escherichia coli ATCC 4157; assay: as above
Protocol: as §1, §2, §3, §4

[13] = test system: Pseudomonas aeruginosa ATCC 10145; assay: as above
Protocol: as §1, §2, §3, §4

[14] = test system: Klebsiella pneumoniae M-1; assay: as above
Protocol: as §1, §2, §3, §4

Ceratocystis ips = assay: Agar-plate minimum inhibitory concentration (Example 12); details: read-out: Minimum Inhibitory Concentration
Protocol: as §1, §2

Candida pelliculosa = assay: as above; details: Hansenula anomala, read-out: Minimum Inhibitory Concentration
Protocol: as §1, §2

Aspergillus niger = assay: as above; details: read-out: Minimum Inhibitory Concentration
Protocol: as §1, §2

Streptococcus mutans = assay: as above; details: read-out: Minimum Inhibitory Concentration
Protocol: as §1, §2

Salmonella typhosa = assay: as above; details: Salmonella enterica, read-out: Minimum Inhibitory Concentration
Protocol: as §1, §2

Bacillus subtilis = assay: as above; details: read-out: Minimum Inhibitory Concentration
Protocol: as §1, §2

Candida albicans = assay: as above; details: read-out: Minimum Inhibitory Concentration
Protocol: as §1, §2

[15] = test system: Trichophyton mentagrophytes; assay: as above; details: read-out: Minimum Inhibitory Concentration
Protocol: as §1, §2

[16] = M1, read-out: Minimum Inhibitory Concentration

Q: `CCOC(=O)CNC(=O)Oc1cccc2cccnc12` [Example 9, Ethyl N-(((8-quinolinyl)oxy)carbonyl)glycinate] was tested. Which MIC ([1]; ATCC11229, Ec 11229, read-out: Minimum Inhibitory Concentration) did it give?
A: The MIC was 75 µg/mL (≈ 273 µM).

Q: What about the MIC ([2]; ATCC25923, Sa 25923, read-out: Minimum Inhibitory Concentration) of the same molecule?
A: Its MIC is 10 µg/mL (≈ 36.5 µM).

Q: What about the MIC ([3]; ATCC9723, Ec 9723, read-out: Minimum Inhibitory Concentration) of the same molecule?
A: Its MIC is 75 µg/mL (≈ 273 µM).

Q: And the MIC ([4]; M2, Kp M-2, read-out: Minimum Inhibitory Concentration)?
A: Its MIC is 100 µg/mL (≈ 365 µM).

Q: And the MIC ([5]; ATCC25922, Ec 25922, read-out: Minimum Inhibitory Concentration)?
A: The MIC was 75 µg/mL (≈ 273 µM).

Q: What about the MIC ([6]; PRD10, Pa PRD-10, read-out: Minimum Inhibitory Concentration) of the same molecule?
A: Its MIC is 500 µg/mL (≈ 1820 µM).

Q: And the MIC (Serratia marcescens M-1; M1, Sr M-1, read-out: Minimum Inhibitory Concentration)?
A: The MIC was 100 µg/mL (≈ 365 µM).

Q: What about the MIC ([7]; ATCC27853, Pa 27853, read-out: Minimum Inhibitory Concentration) of the same molecule?
A: Its MIC is 250 µg/mL (≈ 911 µM).

Q: And the MIC (Proteus mirabilis 470/1; Pm 470/1, read-out: Minimum Inhibitory Concentration)?
A: Its MIC is 75 µg/mL (≈ 273 µM).

Q: What about the MIC ([8]; ATCC23357, Kp 23357, read-out: Minimum Inhibitory Concentration) of the same molecule?
A: Its MIC is 50 µg/mL (≈ 182 µM).

Q: What about the MIC ([9]; ATCC7700, Pa 7700, read-out: Minimum Inhibitory Concentration) of the same molecule?
A: Its MIC is 500 µg/mL (≈ 1820 µM).

Q: What about the MIC ([10]; ATCC13048, Ea 13048, read-out: Minimum Inhibitory Concentration) of the same molecule?
A: Its MIC is 100 µg/mL (≈ 365 µM).

Q: What about the MIC ([11]; M6, Kp M-6, read-out: Minimum Inhibitory Concentration) of the same molecule?
A: The MIC was 75 µg/mL (≈ 273 µM).

Q: And the MIC ([12]; ATCC4157, Ec 4157, read-out: Minimum Inhibitory Concentration)?
A: The MIC was 75 µg/mL (≈ 273 µM).

Q: What about the MIC ([13]; ATCC10145, Pa 10145, read-out: Minimum Inhibitory Concentration) of the same molecule?
A: Its MIC is 50 µg/mL (≈ 182 µM).

Q: And the MIC ([14]; M1, Kp M-1, read-out: Minimum Inhibitory Concentration)?
A: Its MIC is 100 µg/mL (≈ 365 µM).

Q: What about the MIC (Ceratocystis ips; Ceratocystis ips, agar, 72-120 hours) of the same molecule?
A: The MIC was 100 µg/mL (≈ 365 µM).

Q: And the MIC (Candida pelliculosa; Candida pelliculosa, agar, 72-120 hours)?
A: Its MIC is 50 µg/mL (≈ 182 µM).

Q: What about the MIC (Aspergillus niger; agar, 72-120 hours) of the same molecule?
A: Its MIC is 100 µg/mL (≈ 365 µM).

Q: What about the MIC (Streptococcus mutans; agar, 37° C., 24 hours) of the same molecule?
A: The MIC was 5 µg/mL (≈ 18.2 µM).

Q: And the MIC (Salmonella typhosa; Salmonella typhosa, agar, 37° C., 24 hours)?
A: The MIC was 50 µg/mL (≈ 182 µM).

Q: What about the MIC (Bacillus subtilis; agar, 37° C., 24 hours) of the same molecule?
A: Its MIC is 10 µg/mL (≈ 36.5 µM).

Q: And the MIC (Candida albicans; agar, 72-120 hours)?
A: The MIC was 100 µg/mL (≈ 365 µM).

Q: And the MIC ([15]; agar, 72-120 hours)?
A: Its MIC is 50 µg/mL (≈ 182 µM).

Q: How did the MIC ([1]; ATCC11229, read-out: Minimum Inhibitory Concentration) turn out when `CNC(=O)Oc1c(Cl)cc(Cl)c2cccnc12` [Example 10, 5,7-Dichloro-8quinolinyl N-methylcarbamate] was run?
A: Its MIC is 10 µg/mL (≈ 36.9 µM).

Q: What about the MIC ([2]; ATCC25923, read-out: Minimum Inhibitory Concentration) of the same molecule?
A: Its MIC is less than 5 µg/mL.

Q: What about the MIC ([3]; ATCC9723, read-out: Minimum Inhibitory Concentration) of the same molecule?
A: Its MIC is 10 µg/mL (≈ 36.9 µM).

Q: What about the MIC ([4]; M2, read-out: Minimum Inhibitory Concentration) of the same molecule?
A: The MIC was 25 µg/mL (≈ 92.2 µM).

Q: And the MIC ([5]; ATCC25922, read-out: Minimum Inhibitory Concentration)?
A: The MIC was 10 µg/mL (≈ 36.9 µM).

Q: What about the MIC ([6]; PRD10, read-out: Minimum Inhibitory Concentration) of the same molecule?
A: The MIC was 25 µg/mL (≈ 92.2 µM).

Q: And the MIC (Serratia marcescens M-1; [16])?
A: Its MIC is 25 µg/mL (≈ 92.2 µM).

Q: What about the MIC ([7]; ATCC27853, read-out: Minimum Inhibitory Concentration) of the same molecule?
A: Its MIC is 50 µg/mL (≈ 184 µM).

Q: What about the MIC (Proteus mirabilis 470/1; 470/1, read-out: Minimum Inhibitory Concentration) of the same molecule?
A: The MIC was 10 µg/mL (≈ 36.9 µM).

Q: And the MIC ([8]; ATCC23357, read-out: Minimum Inhibitory Concentration)?
A: The MIC was 10 µg/mL (≈ 36.9 µM).

Q: And the MIC ([9]; ATCC7700, read-out: Minimum Inhibitory Concentration)?
A: Its MIC is 50 µg/mL (≈ 184 µM).

Q: And the MIC ([10]; ATCC13048, read-out: Minimum Inhibitory Concentration)?
A: The MIC was 25 µg/mL (≈ 92.2 µM).

Q: And the MIC ([11]; M6, read-out: Minimum Inhibitory Concentration)?
A: The MIC was 25 µg/mL (≈ 92.2 µM).

Q: What about the MIC ([12]; ATCC4157, read-out: Minimum Inhibitory Concentration) of the same molecule?
A: Its MIC is 10 µg/mL (≈ 36.9 µM).

Q: And the MIC ([13]; ATCC10145, read-out: Minimum Inhibitory Concentration)?
A: The MIC was 10 µg/mL (≈ 36.9 µM).

Q: What about the MIC [14, 16] of the same molecule?
A: The MIC was 25 µg/mL (≈ 92.2 µM).

Q: What about the MIC (Ceratocystis ips) of the same molecule?
A: The MIC was 50 µg/mL (≈ 184 µM).

Q: And the MIC (Candida pelliculosa)?
A: Its MIC is 5 µg/mL (≈ 18.4 µM).

Q: And the MIC (Aspergillus niger)?
A: Its MIC is 10 µg/mL (≈ 36.9 µM).

Q: And the MIC (Streptococcus mutans; 24 h)?
A: The MIC was 10 µg/mL (≈ 36.9 µM).

Q: And the MIC (Salmonella typhosa; TYPHOSA, 24 h)?
A: The MIC was 10 µg/mL (≈ 36.9 µM).

Q: What about the MIC (Bacillus subtilis; 24 h) of the same molecule?
A: The MIC was 0.5 µg/mL (≈ 1.84 µM).

Q: And the MIC (Candida albicans)?
A: Its MIC is 5 µg/mL (≈ 18.4 µM).

Q: What about the MIC [15] of the same molecule?
A: The MIC was 50 µg/mL (≈ 184 µM).
